Measured values as given in patent publication US11299519B2, “Host cells and methods using a repressor polypeptide and an inducible promoter for gene expression” (The Regents of the University of California, priority 2015, dated 2022).

Key:
p1-promoter = experiment: RFP expression from the p1-promoter in various bacteria; format: cell-based, Three different gram-negative bacteria; conditions: same plasmid in all strains (BBR origin of replication)
Source text: All strains contain the same plasmid (BBR origin of replication).
The functionality of Eil-promoters is not restricted to E. coli and offers an expression platform in various host organisms. […] In addition to bacterial promoters, the eil operators can be used to control expression from phage promoters such as T7. […] RFP was expressed from a T7 promoter controlled either by an IPTG-inducible lac operator or an acridine orange-inducible eil operator. The chromosomal T7-RNA polymerase was expressed from a Lac-promoter in both cases (in E. coli BL21-DE3). In the future, T7 RNA-polymerase expression could also be controlled by an Eil-promoter. […] All strains contain the same plasmid (BBR origin of replication).

Eil-promoter = experiment: Induction of Eil-promoter (EilR-regulated, reporter gene) by hydrophobic cations; format: cell-based, E. coli; conditions: preliminary results for the leuco-form
Source text: A series of EilR-regulated promoters have been identified by creating a library that contains an eil-operator and randomized core promoter sequences coupled to a reporter gene. […] Subsequent optimizations have led to several Eil-promoters with improved properties.
The Eil- or Qac-promoters are useful as tools for monitoring real time oxidative stress. […] An Eil-promoter or Qac-promoter coupled with a reporter gene can serve as a signal-amplifying sensor for real time in vivo oxidative stress, which could be useful to monitor and understand physiological stress reactions. Similarly, heme catalyzes the oxidation of the colorless leucocrystal violet to its purple cation by reducing hydrogen peroxide. This colorful radical reaction is utilized in forensics to uncover removed blood stains. Crystal violet induces Eil-biosensors at concentrations that are much lower than the eye can detect. Such a sensor could be a sensitive tool for blood detection in forensic analyses.
Numbers in brackets indicate the concentration applied for induction (in μM).

KmrR = experiment: RFP expression from an Eil-promoter regulated by EilR homologue KmrR; format: cell-based, Klebsiella BRL6-2; conditions: in E. coli; eilO consensus operator
Source text: (§1) The EilR homologues SmvR (from Salmonella typhimurium) and KmrR (from Klebsiella BRL6-2) regulate RFP expression from an Eil-promoter in E. coli. Like EilR, these repressors bind to the eilO consensus operator and are induced e.g. by crystal violet.

SmvR = experiment: RFP expression from an Eil-promoter regulated by EilR homologue SmvR; format: cell-based, Salmonella typhimurium; conditions: in E. coli; eilO consensus operator
Source text: as §1

For `CN(C)c1ccc2cc3ccc(N(C)C)cc3nc2c1` [acridine orange], which “RFP expression from the p1-promoter on induction” value (p1-promoter) is on record?
The value was “express RFP from the p1-promoter”.

With `CN(C)c1ccc(C(c2ccc(N(C)C)cc2)c2ccc(N(C)C)cc2)cc1` [leucocrystal violet] as the molecule, how does the “induction of Eil-promoters” value (Eil-promoter) read?
The value was “does not cause induction”.

Which results are given for `CN(C)c1ccc(C(=C2C=CC(=[N+](C)C)C=C2)c2ccc(N(C)C)cc2)cc1` [crystal violet]?
induction of KmrR-regulated RFP expression from an Eil-promoter (KmrR): induced; induction of SmvR-regulated RFP expression from an Eil-promoter (SmvR): induced; induction of Eil-promoters (Eil-promoter): induces Eil-promoters at nanomolar concentrations
